Test systems include HCC-2998 colon; HOP-62 NSCLC; MOLT-4 leukemia; NCI-H23 lung; NCI-H522 lung; RXF 393 renal; SF-268 CNS; SK-MEL-2 melanoma; SK-MEL-28 melanoma; SW-620 colon.
Holding throughout (assay): NCI anticancer screen, dose series, 48 h

Each structure is given as a SMILES string.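 Values below derive from 48-hour exposures of cells grown in 96-well plates, with endpoints linearly interpolated between the two concentrations bracketing the appropriate inhibition level. GI50 = concentration required for 50% inhibition of growth. TGI denotes the concentration required for complete inhibition of growth.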 Some results are limits rather than exact numbers.

Regarding `C/C(=N\NC(=S)Nc1ccccc1)c1ccccn1`, the GI50 in the experiment with HCC-2998 colon was 0.924 µM; in the experiment on HOP-62 NSCLC, 0.0708 µM; in the experiment with MOLT-4 leukemia, under 0.0278 µM; in the experiment with NCI-H23 lung, 0.0191 µM; in the experiment with NCI-H522 lung, 0.207 µM; in the experiment on RXF 393 renal it was 0.588 µM. The GI50 in the experiment on SF-268 CNS was 0.205 µM; in the experiment on SK-MEL-2 melanoma it was 1.37 µM; with SK-MEL-28 melanoma it was 1.68 µM; in the experiment on SW-620 colon it was 0.0242 µM. In addition, the TGI with HCC-2998 colon is 3.12 µM; in the experiment with HOP-62 NSCLC, 3.61 µM; with MOLT-4 leukemia it was 16.9 µM; in the experiment on NCI-H23 lung it was 5.22 µM; in the experiment with NCI-H522 lung, 1.61 µM; with RXF 393 renal, 2.64 µM. Also, the TGI was determined as 5.17 µM in the experiment with SF-268 CNS, 3.79 µM in the experiment with SK-MEL-2 melanoma, 4.94 µM in the experiment with SK-MEL-28 melanoma and 2.94 µM in the experiment on SW-620 colon.
Take `CCN1CCC(O)(c2ccccc2)C(C(=O)c2ccccc2)C1` (stereo not given): the TGI in the experiment with HCC-2998 colon was over 100 µM; in the experiment on HOP-62 NSCLC, over 100 µM; with MOLT-4 leukemia it was over 60.2 µM; in the experiment with NCI-H23 lung, 97.5 µM; in the experiment on NCI-H522 lung, 6.87 µM; with RXF 393 renal it was 29.7 µM. Besides, the TGI with SF-268 CNS is over 31.6 µM; in the experiment with SK-MEL-2 melanoma it was over 100 µM; in the experiment with SK-MEL-28 melanoma, 33.4 µM; with SW-620 colon it was 38.3 µM.
Take `Nc1cc2c3c(cccc3c1)C(=O)N(CCN1CCN(CCN3C(=O)c4cccc5cc(N)cc(c45)C3=O)CC1)C2=O`: the TGI with HCC-2998 colon, in the experiment on HOP-62 NSCLC, in the experiment on MOLT-4 leukemia, in the experiment on NCI-H23 lung, in the experiment on NCI-H522 lung and in the experiment with RXF 393 renal was over 100 µM each time. The TGI in the experiment with SF-268 CNS, in the experiment with SK-MEL-2 melanoma, with SK-MEL-28 melanoma and with SW-620 colon was over 100 µM each time.
With `C/C=C(\C)C(=O)O[C@@H]1C=CC(=O)O[C@H]1COC(=O)[C@H](C)O`, the GI50 with HCC-2998 colon was 14.8 µM; in the experiment with HOP-62 NSCLC, 16.8 µM; in the experiment on MOLT-4 leukemia, 7.31 µM; in the experiment on NCI-H23 lung it was 18.4 µM; in the experiment with NCI-H522 lung, 4.96 µM; with RXF 393 renal it was 6.51 µM. Moreover, the GI50 is 3.72 µM in the experiment with SF-268 CNS, 17.5 µM in the experiment on SK-MEL-2 melanoma, 12.4 µM in the experiment on SK-MEL-28 melanoma and 4.79 µM with SW-620 colon. Moreover, the TGI in the experiment with HCC-2998 colon came out at 28.7 µM; in the experiment on HOP-62 NSCLC it was 33.3 µM; in the experiment on MOLT-4 leukemia, 28.4 µM; in the experiment on NCI-H23 lung, 50.6 µM; with NCI-H522 lung, 20.7 µM; in the experiment on RXF 393 renal, 30 µM. Moreover, the TGI in the experiment with SF-268 CNS worked out at 19.5 µM; in the experiment on SK-MEL-2 melanoma, 68.6 µM; with SK-MEL-28 melanoma, 27.9 µM; in the experiment with SW-620 colon, 15.9 µM.
Turning to `O=C1c2cccnc2-c2nc(-c3ccccc3)cc3c2c1nc1ccccc13`, the GI50 in the experiment on HCC-2998 colon is 4.95 µM; with HOP-62 NSCLC, 14.5 µM; in the experiment on MOLT-4 leukemia it was 2.5 µM; in the experiment on NCI-H23 lung, 1.73 µM; in the experiment on NCI-H522 lung, 0.714 µM; with RXF 393 renal, 16 µM. Also, the GI50 in the experiment with SF-268 CNS is 3.93 µM; in the experiment with SK-MEL-2 melanoma, 5.53 µM; in the experiment with SK-MEL-28 melanoma, 14.8 µM; in the experiment on SW-620 colon, 2.56 µM. Moreover, the TGI in the experiment with HCC-2998 colon stood at 18.5 µM; in the experiment on HOP-62 NSCLC, 28.3 µM; in the experiment on MOLT-4 leukemia it was 14.8 µM; with NCI-H23 lung, 7.48 µM; with NCI-H522 lung it was 3.06 µM; in the experiment with RXF 393 renal, 32.3 µM. In addition, the TGI in the experiment with SF-268 CNS is 18.8 µM; with SK-MEL-2 melanoma, 20.1 µM; with SK-MEL-28 melanoma, 29.8 µM; with SW-620 colon, over 35.2 µM.
Consider `Cc1ccc(C)c(NC(=O)CCC(=O)CC(=O)C(C)(C)C)c1`, for which the TGI with HCC-2998 colon, with HOP-62 NSCLC, in the experiment on MOLT-4 leukemia, in the experiment on NCI-H23 lung, in the experiment with NCI-H522 lung and in the experiment on RXF 393 renal was over 100 µM in each case. Also, the TGI in the experiment with SF-268 CNS, with SK-MEL-2 melanoma, in the experiment with SK-MEL-28 melanoma and in the experiment with SW-620 colon was over 100 µM each time.
With `CNS(=O)(=O)NN(C)S(=O)(=O)c1ccc(C)cc1`, the TGI with HCC-2998 colon, in the experiment on HOP-62 NSCLC, in the experiment with MOLT-4 leukemia, with NCI-H23 lung, in the experiment on NCI-H522 lung and with RXF 393 renal was over 100 µM in each case. The TGI in the experiment on SF-268 CNS, with SK-MEL-2 melanoma, with SK-MEL-28 melanoma and in the experiment on SW-620 colon was over 100 µM throughout.
As to `NCCCNCCCNc1nc2ccccc2c2[nH]c3ccccc3c12`, the GI50 in the experiment on HCC-2998 colon is 0.109 µM; in the experiment with HOP-62 NSCLC, 0.0632 µM; in the experiment with MOLT-4 leukemia it was 0.0252 µM; in the experiment on NCI-H23 lung, 0.0936 µM; in the experiment on NCI-H522 lung, 0.00716 µM; in the experiment on RXF 393 renal it was 0.313 µM. Further, the GI50 with SF-268 CNS was 0.0264 µM; in the experiment with SK-MEL-2 melanoma, 0.703 µM; with SK-MEL-28 melanoma, 0.464 µM; with SW-620 colon, 0.19 µM. For the same compound, the TGI with HCC-2998 colon came out at 0.733 µM; with HOP-62 NSCLC, 1.18 µM; with MOLT-4 leukemia it was 3.62 µM; in the experiment with NCI-H23 lung, 1.06 µM; in the experiment with NCI-H522 lung it was 0.563 µM; in the experiment on RXF 393 renal, 2.13 µM. Also, the TGI in the experiment on SF-268 CNS is 1.72 µM; in the experiment with SK-MEL-2 melanoma it was 2.42 µM; in the experiment with SK-MEL-28 melanoma it was 2.1 µM; with SW-620 colon, 1.64 µM.
In the case of `c1ccc(COc2ccc(Nc3ncnc4ccc(-c5ccco5)cc34)cc2)cc1`, the GI50 in the experiment on HCC-2998 colon is 10.6 µM; in the experiment on HOP-62 NSCLC, 5.85 µM; in the experiment with MOLT-4 leukemia, 11.7 µM; with NCI-H23 lung it was 5.54 µM; in the experiment on NCI-H522 lung it was 4.84 µM; with RXF 393 renal, 3.4 µM. Further, the GI50 is 8.29 µM in the experiment on SF-268 CNS, 9.68 µM in the experiment on SK-MEL-2 melanoma, 9.51 µM in the experiment with SK-MEL-28 melanoma and 7.47 µM in the experiment with SW-620 colon. Besides, the TGI with HCC-2998 colon was over 25 µM; with HOP-62 NSCLC, 16 µM; in the experiment on MOLT-4 leukemia, over 25 µM; in the experiment with NCI-H23 lung it was over 17.9 µM; in the experiment on NCI-H522 lung it was 15.1 µM; with RXF 393 renal, 8.61 µM. Besides, the TGI in the experiment with SF-268 CNS was over 25 µM; with SK-MEL-2 melanoma, 24.6 µM; in the experiment on SK-MEL-28 melanoma it was over 25 µM; in the experiment on SW-620 colon it was 22.7 µM.

Source of the values: PubChem BioAssay (NCI).
